Measurements: PubChem BioAssay (NCI)
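Briefly, cells in 96-well plates were exposed to five compound concentrations for 48 h, and endpoints were estimated by linear interpolation. GI50 marks 50% less growth. TGI: total growth inhibition.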

Assays:
Assay in all cases: growth of human tumour cells (NCI), 48 h
SF-268 CNS = tested on: SF-268 CNS
IGROV1 ovarian = tested on: IGROV1 ovarian
MALME-3M melanoma = tested on: MALME-3M melanoma
U251 CNS = tested on: U251 CNS
MOLT-4 leukemia = tested on: MOLT-4 leukemia
RXF 393 renal = tested on: RXF 393 renal
SF-295 CNS = tested on: SF-295 CNS
MDA-MB-231 breast = tested on: MDA-MB-231 breast
MDA-MB-435 = tested on: MDA-MB-435
TK-10 renal = tested on: TK-10 renal
A498 renal = tested on: A498 renal
MCF7 breast = tested on: MCF7 breast
OVCAR-8 ovarian = tested on: OVCAR-8 ovarian
SK-OV-3 ovarian = tested on: SK-OV-3 ovarian
DU-145 prostate = tested on: DU-145 prostate
PC-3 prostate = tested on: PC-3 prostate
RPMI-8226 leukemia = tested on: RPMI-8226 leukemia
SF-539 CNS = tested on: SF-539 CNS
K-562 leukemia = tested on: K-562 leukemia
T-47D breast = tested on: T-47D breast
OVCAR-5 ovarian = tested on: OVCAR-5 ovarian
HCT-15 colon = tested on: HCT-15 colon
HS 578T breast = tested on: HS 578T breast
NCI-H226 lung = tested on: NCI-H226 lung
COLO 205 colon = tested on: COLO 205 colon
SK-MEL-2 melanoma = tested on: SK-MEL-2 melanoma
M14 melanoma = tested on: M14 melanoma
UACC-62 melanoma = tested on: UACC-62 melanoma
ACHN renal = tested on: ACHN renal

In the case of `Nc1nonc1-c1nc2cnccc2n1C1CCCCC1`, the TGI (SF-268 CNS) is reported as > 25 µM, the GI50 (IGROV1 ovarian) is reported as > 23.1 µM and the TGI (IGROV1 ovarian) is reported as > 25 µM. The GI50 (MALME-3M melanoma) was > 25 µM, the TGI (MALME-3M melanoma) was > 25 µM and the GI50 (U251 CNS) was 16.5 µM. For the same molecule, the TGI (U251 CNS) was > 25 µM, the GI50 (MOLT-4 leukemia) was 12 µM and the TGI (MOLT-4 leukemia) was > 25 µM. For the same molecule, the GI50 (RXF 393 renal) was 4.8 µM, the TGI (RXF 393 renal) was > 25 µM and the GI50 (SF-295 CNS) was 9.48 µM. For the same molecule, the TGI (SF-295 CNS) was > 25 µM, the GI50 (MDA-MB-231 breast) was > 25 µM and the TGI (MDA-MB-231 breast) was > 25 µM. For the same molecule, the GI50 (MDA-MB-435) was 22.5 µM, the TGI (MDA-MB-435) was > 25 µM and the GI50 (TK-10 renal) was 3.44 µM. The TGI (TK-10 renal) was > 25 µM, the GI50 (A498 renal) was 5.09 µM and the TGI (A498 renal) was > 25 µM. The GI50 (MCF7 breast) was 9.44 µM, the TGI (MCF7 breast) was > 25 µM and the GI50 (OVCAR-8 ovarian) was 12.8 µM. The TGI (OVCAR-8 ovarian) was > 25 µM, the GI50 (SK-OV-3 ovarian) was 18.8 µM and the TGI (SK-OV-3 ovarian) was > 25 µM. The GI50 (DU-145 prostate) was 20.5 µM, the TGI (DU-145 prostate) was > 25 µM and the GI50 (PC-3 prostate) was > 19.9 µM. For the same molecule, the TGI (PC-3 prostate) was > 25 µM, the GI50 (RPMI-8226 leukemia) was 16.1 µM and the TGI (RPMI-8226 leukemia) was > 25 µM. For the same molecule, the GI50 (SF-539 CNS) was 3.7 µM, the TGI (SF-539 CNS) was > 25 µM and the GI50 (K-562 leukemia) was 11 µM. For the same molecule, the TGI (K-562 leukemia) was > 25 µM, the GI50 (T-47D breast) was 13.3 µM and the TGI (T-47D breast) was > 25 µM. The GI50 (OVCAR-5 ovarian) was > 25 µM, the TGI (OVCAR-5 ovarian) was > 25 µM and the GI50 (HCT-15 colon) was 13.4 µM. The TGI (HCT-15 colon) was > 25 µM, the GI50 (HS 578T breast) was 13.9 µM and the TGI (HS 578T breast) was > 25 µM. For the same molecule, the GI50 (NCI-H226 lung) was 12.9 µM, the TGI (NCI-H226 lung) was > 25 µM and the GI50 (COLO 205 colon) was 6.9 µM. For the same molecule, the TGI (COLO 205 colon) was > 25 µM, the GI50 (SK-MEL-2 melanoma) was 12 µM and the TGI (SK-MEL-2 melanoma) was > 25 µM. The GI50 (M14 melanoma) was 24 µM, the TGI (M14 melanoma) was > 25 µM and the GI50 (UACC-62 melanoma) was 14.3 µM. For the same molecule, the TGI (UACC-62 melanoma) was > 25 µM, the GI50 (ACHN renal) was 12 µM and the TGI (ACHN renal) was > 25 µM.
